Laboratory results reported in patent US20200331950A1, “SGLTS INHIBITOR AND APPLICATION THEREOF” (SHANDONG DANHONG PHARMACEUTICAL CO., LTD., priority 2018, published 2020).
Marks after values point to notes of the source that are not given here.

Legend:
[1] = target: T1, Human-SGLT1 (Homo sapiens, UniProt P13866); test: SGLT1 glucose transport test ([14C]-labeled methyl a-D-glucopyranoside uptake); type: cell-based; settings: cells stably expressing Human-SGLT1; 37° C., 2 hours
T1 sequence (P13866 1-664): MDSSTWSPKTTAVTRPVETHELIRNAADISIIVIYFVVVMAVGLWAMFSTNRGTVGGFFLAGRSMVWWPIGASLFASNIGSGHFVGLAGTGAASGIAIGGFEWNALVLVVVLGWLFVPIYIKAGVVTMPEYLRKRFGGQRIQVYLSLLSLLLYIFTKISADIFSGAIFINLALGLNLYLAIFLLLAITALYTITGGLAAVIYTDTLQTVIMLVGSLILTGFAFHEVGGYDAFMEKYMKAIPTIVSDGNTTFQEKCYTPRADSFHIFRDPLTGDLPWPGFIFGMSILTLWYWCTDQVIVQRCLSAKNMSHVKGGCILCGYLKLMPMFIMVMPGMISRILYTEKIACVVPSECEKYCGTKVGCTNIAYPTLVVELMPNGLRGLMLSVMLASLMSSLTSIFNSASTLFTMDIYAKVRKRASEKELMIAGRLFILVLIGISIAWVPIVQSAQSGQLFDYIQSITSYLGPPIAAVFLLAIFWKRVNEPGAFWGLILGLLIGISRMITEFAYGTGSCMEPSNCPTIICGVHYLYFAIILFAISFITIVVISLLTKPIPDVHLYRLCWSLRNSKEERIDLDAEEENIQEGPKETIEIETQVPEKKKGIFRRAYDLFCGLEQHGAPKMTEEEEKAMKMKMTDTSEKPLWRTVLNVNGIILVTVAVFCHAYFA
Excerpt: Biological Activity Experiment 1: SGLT1 Glucose Transport Test.
(§1) 1. Purpose of the Experiment:
The effect of the compound on the glucose transport activity of SGLT1 transporter was detected by measuring the amount of [′C]-labeled glucose entering cells with high expression of Human-SGLT1.
The cells stably expressing Human-SGLT1 were constructed by Wuxi AppTec(Shanghai) Co., Ltd. SGLT1 cells were laid in Cytostar-T (PerkinElmer) 96-well cell culture plate and cultured overnight in 5% CO2 environment at 37° C.
2.2. SGLT1 Glucose Transport Test.
(§2) 1) Experimental buffer, including: 10 mM 4-hydroxyethylpiperazineethanesulfonic acid (HEPES), 1.2 mM magnesium chloride (MgCl2), 4.7 mM potassium chloride (KCl), 2.2 mM calcium chloride (CaCl2) and 120 mM sodium chloride (NaCl).
2) Compounds were serially diluted in 100% dimethyl sulfoxide (DMSO) starting at 1 mM and make a 5-folds, 8 points serials compound dilutions.
3) 3 μM [′^4C]-labeled methyl a-D-glucopyranoside was prepared with the experimental buffer.
4) The cells were treated with 49 uL of the experimental buffer, 1 μL of the gradient diluted compound and 50 μL of the 3 μM [^14C]-labeled methyl a-D-lucopyranosid solution at 37° C. for 2 hours.
5) The data were read with an isotope detector Micro beta Reader.
6) The IC50 value of the tested compound was obtained by the calculation formula: log(inhibitor) vs. response—Variable slope, using GraphPad Prism 5.0 software.

[2] = target: T2, Human-SGLT2 (Homo sapiens, UniProt P31639); test: SGLT2 glucose transport test ([14C]-labeled methyl a-D-glucopyranoside uptake); type: cell-based; settings: cells stably expressing Human-SGLT2; 37° C., 2 hours
T2 sequence (P31639 1-672): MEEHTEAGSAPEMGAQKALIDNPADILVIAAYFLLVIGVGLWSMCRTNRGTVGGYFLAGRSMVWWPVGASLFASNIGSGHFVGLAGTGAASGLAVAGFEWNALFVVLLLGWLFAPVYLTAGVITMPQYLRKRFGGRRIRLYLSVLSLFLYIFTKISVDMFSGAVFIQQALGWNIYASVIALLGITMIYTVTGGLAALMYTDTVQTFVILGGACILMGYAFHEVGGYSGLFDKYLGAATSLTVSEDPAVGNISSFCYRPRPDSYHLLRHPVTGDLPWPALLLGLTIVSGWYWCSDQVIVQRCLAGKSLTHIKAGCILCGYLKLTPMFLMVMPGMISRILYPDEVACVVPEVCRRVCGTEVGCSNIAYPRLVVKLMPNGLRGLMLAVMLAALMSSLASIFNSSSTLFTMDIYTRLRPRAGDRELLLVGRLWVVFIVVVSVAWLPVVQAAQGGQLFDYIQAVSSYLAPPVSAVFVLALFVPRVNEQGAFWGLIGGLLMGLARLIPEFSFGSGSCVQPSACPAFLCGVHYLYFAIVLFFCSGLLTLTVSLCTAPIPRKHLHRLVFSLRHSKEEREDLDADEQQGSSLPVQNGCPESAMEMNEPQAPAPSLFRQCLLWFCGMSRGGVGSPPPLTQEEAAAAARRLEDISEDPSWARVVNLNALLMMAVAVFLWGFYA
Procedure: Biological Activity Experiment 2: SGLT2 Glucose Transport Test.
as §1
The effect of the compound on the glucose transport activity of SGLT2 transporter was detected by measuring the amount of [^14C]-labeled glucose entering cells with high expression of Human-SGLT2.
The cells stably expressing Human-SGLT2 were constructed by Wuxi AppTec(Shanghai) Co., Ltd. SGLT2 cells were laid in 96-well cell culture plate (Greiner) and cultured overnight in 5% CO2 environment at 37° C.
2.2. SGLT2 Glucose Transport Test.
as §2
2) Stop buffer, including: 10 mM 4-hydroxyethylpiperazineethanesulfonic acid (HEPES), 1.2 mM magnesium chloride (MgCl2), 4.7 mM potassium chloride (KCl), 2.2 mM calcium chloride (CaCl2), 120 mM sodium chloride (NaCl) and 1 μM LX4211.
3) Compounds were serially diluted in 100% dimethyl sulfoxide (DMSO) starting at 10 uM and make a 5-folds, 8 points serials compound dilutions.
4) 6 μM [^14C]-labeled methyl a-D-lucopyranosid was prepared with the experimental buffer.
5) The cells were treated with 49 uL of the experimental buffer, 1 μL of the gradient diluted compound and 50 μL of the 6 μM [^14C]-labeled methyl a-D-lucopyranosid solution at 37° C. for 2 hours.
6) The solution was sucked out from holes, and the cells were rinsed with the stop buffer for 3 times.
7) The cells were lysed with 50 ul of 10% sodium hydroxide solution, the cell lysate was sucked into a scintillation tube, into which 2 mL scintillation solution was then added.
8) The data were read with an isotope detector Tricarb.
9) The IC50 value of the tested compound was obtained by the calculation formula: log(inhibitor) vs. response—Variable slope, using GraphPad Prism 5.0 software.

[3] = In vivo pharmacokinetics in rats; settings: male SD rats
Excerpt: Study on the In Vivo Pharmacokinetics in Rats
The purpose of the experiment: Male SD rats were used as test animals and were given a single administration to determine the plasma concentration of the compound and evaluate the pharmacokinetic behavior.
Experimental method: Six healthy adult male SD rats were divided into 2 groups, with 3 rats in an intravenous injection group and 3 rats in an oral administration group. In the intravenous injection group, the test compound was mixed with an appropriate amount of vehicle (10% N-methyl pyrrolidone (NMP)/10% polyethylene glycol-15 hydroxystearate (available from solutol)/80% water), then vortexed and sonicated to prepare 0.2 mg/mL clear solution, which was filtered by microporous membrane. In the oral administration group, 10% N-methyl pyrrolidone (NMP)/10% polyethylene glycol-15 hydroxy stearate (available from solutol)/80% water was used as a vehicle and mixed with the test compound, then vortexed and sonicated to prepare 0.40 mg/mL clear solution. The rats were given intravenous administration at a dose of 1 mg/kg or oral administration at a dose of 2 mg/kg. Whole blood was collected at a certain period of time to prepare the plasma. The drug concentration of the plasma was analyzed by LC-MS/MS method, and the pharmacokinetic parameters were calculated using Phoenix WinNonlin software (Pharsight Company, USA).

[4] = test system: SD rats; test: Oral glucose tolerance test (OGTT) in rats, first time; type: in vivo; settings: first study, male SD rats, 10 mg/kg single intragastric administration
Procedure: Experimental Example 3. Study on In Vivo Efficacy of Oral Glucose Tolerance Test (OGTT) in Rats: Study on the In Vivo Efficacy of Oral Glucose Tolerance Test (OGTT) in Rats for the First Time
(§3) The experimental animals were allowed to adapt to the environment in the animal room for one week after they arrived.
(§4) The animals fasted in the metabolic cage for 18 hours, then were given drugs or vehicle (2 ml/kg) according to the above table, and subsequently were immediately given 50% glucose solution (2 g/kg, 4 ml/kg).
(§5) 2 hours after the administration of glucose solution, feed intake was restored. Blood samples were taken at 0 min, 15 min, 30 min, 45 min, 60 min and 120 min respectively, and urine samples were collected at 0-24 h to test blood glucose, urine glucose (mg/200 g) and urine volume respectively.
(§6) All values are represented as averages. Statistical analysis was performed using Graphpad Prism 6 one-way analysis of variance and Tukey's multiple comparison test. P value of less than 0.05 is considered statistically significant.

[5] = test system: SD rats; test: Oral glucose tolerance test (OGTT) in rats, second time; type: in vivo; settings: second study, male SD rats, 10 mg/kg single intragastric administration
Procedure: Study on the In Vivo Efficacy of Oral Glucose Tolerance Test (OGTT) in Rats for the Second Time:
as §3, §4, §5, §6

COc1ccc(C2O[C@H](SC)[C@@H](O)[C@H](O)[C@H]2O)cc1Cc1ccc(C2=CCC(F)(F)CC2)cc1 (stereo partly drawn) [WXD008]
IC50 [1]: 17.2 nM
IC50 [2]: 5.4 nM

CCOc1ccc(Cc2cc([C@@H]3O[C@H](SC)[C@@H](O)[C@H](O)[C@H]3O)ccc2Cl)cc1 [Sotagliflozin, reference compound]
IC50 [2]: 1.15 nM
Oral DNAUC (AUCPO/Dose) ([3]; oral 2 mg/kg): 969 nM · h/mpk
clearance ([3]; rat, plasma, intravenous 1 mg/kg or oral 2 mg/kg, read-out: Cl (clearance rate)): 22.6 mL/min/kg
half-life ([3]; rat, plasma, intravenous 1 mg/kg or oral 2 mg/kg, read-out: T1/2 (half-life) (converted)): 1.27 h
Vd ([3]; rat, plasma, intravenous 1 mg/kg or oral 2 mg/kg, read-out: Vdss (distribution volume)): 2.01 L/kg
bioavailability ([3]; rat, plasma, intravenous 1 mg/kg, oral 2 mg/kg, read-out: F % (oral bioavailability)): 54.8%
Cmax ([3]; rat, single administration, intravenous 1 mg/kg or oral 2 mg/kg, plasma): 364 nM
OGTT blood glucose level AUC0-2 hr ([4]; glucose 2 g/kg): 823 mmol/L/min
Urine glucose level ([4]; urine 0-24 h): 2424.0**** mg/200 g, BW
Urine volume ([4]; urine 0-24 h): 39.74**** mL/200 gBW
OGTT blood glucose level AUC0-2 hr ([5]; glucose 2 g/kg): 790 mmol/L/min
Urine glucose level ([5]; urine 0-24 h): 2843.2**** mg/200 g, BW
Urine volume ([5]; urine 0-24 h): 26.4**** mL/200 g, BW

CS[C@H]1O[C@@H](c2ccc(C)c(Cc3ccc(C4=CCOCC4)s3)c2)[C@H](O)[C@@H](O)[C@@H]1O [WXD007]
IC50 [1]: 30.1 nM
IC50 [2]: 1.35 nM

CS[C@H]1OC(c2ccc(C)c(Cc3ccc(C4=CCOCC4)cc3)c2)[C@H](O)[C@@H](O)[C@@H]1O (stereo partly drawn) [WXD004]
IC50 [1]: 14.1 nM
IC50 [2]: 1.49 nM

CS[C@H]1O[C@@H](c2ccc(C)c(Cc3ccc(C4=CCC(F)(F)CC4)s3)c2)[C@H](O)[C@@H](O)[C@@H]1O [WXD006]
IC50 [1]: 39.2 nM
IC50 [2]: 1.02 nM

CS[C@H]1OC(c2ccc(C)c(Cc3ccc(C4=CCCCC4)cc3)c2)[C@H](O)[C@@H](O)[C@@H]1O (stereo partly drawn) [WXD005]
IC50 [1]: 21.9 nM
IC50 [2]: 1.78 nM

CS[C@H]1O[C@@H](c2ccc(C)c(Cc3ccc(C4=CCC5(CC4)OCCO5)cc3)c2)[C@H](O)[C@@H](O)[C@@H]1O [WXD002]
IC50 [1]: 55.6 nM
IC50 [2]: 1.01 nM

CS[C@H]1OC(c2ccc(F)c(Cc3ccc(C4=CCC(F)(F)CC4)cc3)c2)[C@H](O)[C@@H](O)[C@@H]1O (stereo partly drawn) [WXD009]
IC50 [1]: 233 nM
IC50 [2]: 4.68 nM
